From patent publication US10034886B2, “GLP-1 receptor modulators” (Celgene International II SÀRL, priority 2014, dated 2018)
pEC50: −log10 of the molar value.

Target: T1, GLP-1R (Homo sapiens, UniProt P43220)
T1 construct: host or cells: GLP-1R CRE-bla CHO-K1 cells
Assay: EC20 GLP-1(9-36) PAM cAMP assay: dose response of compound in the presence of fixed concentration of GLP-1(9-36)
Assay type: cell-based
Conditions: dose response of compound in presence of fixed concentration of GLP-1(9-36), GLP-1R CRE-bla CHO-K1 cells, read-out: EC20 GLP-1(9-36) PAM EC50
In short: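 Positive allosteric modulation read as cAMP accumulation: compound titrations (12 points) combined with an EC20 level of GLP-1(9-36) on CHO-K1 GLP-1R CRE-bla cells, IBMX present, 30 min, 37 °C, pH 7.4 buffer. Luminescence converted to cAMP via standards; non-linear fit gave EC50 and Emax.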

T1 sequence (P43220 24-463): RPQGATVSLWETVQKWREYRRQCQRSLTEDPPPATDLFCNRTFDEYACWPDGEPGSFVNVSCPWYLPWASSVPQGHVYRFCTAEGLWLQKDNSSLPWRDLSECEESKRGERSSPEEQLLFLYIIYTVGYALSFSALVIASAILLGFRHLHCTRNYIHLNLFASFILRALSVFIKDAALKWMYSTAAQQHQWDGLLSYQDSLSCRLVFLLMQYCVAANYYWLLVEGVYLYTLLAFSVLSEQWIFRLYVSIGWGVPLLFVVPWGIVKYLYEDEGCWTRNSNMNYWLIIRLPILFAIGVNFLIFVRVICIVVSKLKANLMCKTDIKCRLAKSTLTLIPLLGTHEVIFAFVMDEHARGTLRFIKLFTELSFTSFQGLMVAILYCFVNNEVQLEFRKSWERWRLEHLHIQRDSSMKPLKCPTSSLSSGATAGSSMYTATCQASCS
T1 sequence (P01275 100-127 partner limits assumed): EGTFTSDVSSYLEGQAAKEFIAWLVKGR

pEC50 | SMILES
5.30 to 5.60 | CC(C)COc1ccc(-c2cnc(-c3ccc(C[C@H](NC(=O)c4ccc(C(C)(C)C)s4)C(=O)N4CC(C(=O)O)C4)cc3)nc2)cc1 [Compound 789]
5.60 to 6.10 | CCCCCCCOc1ccc(-c2cnc(-c3ccc(C[C@H](NC(=O)c4ccc(C(C)(C)C)s4)C(=O)N[C@H](C)C(=O)O)cc3)nc2)c(C)c1 [Compound 790]
5.60 to 6.10 | CCCCCCCOc1cc(C)c(-c2cnc(-c3ccc(C[C@H](NC(=O)c4ccc(C(C)(C)C)s4)C(=O)N[C@H](C)C(=O)O)cc3)nc2)c(C)c1 [Compound 791]
5.60 to 6.10 | CC(C)CCCCOc1ccc(-c2cnc(-c3ccc(C[C@H](NC(=O)c4ccc(C(C)(C)C)cc4)C(=O)N[C@H](C)C(=O)O)cc3)nc2)cc1 [Compound 792]
5.60 to 6.10 | CC(C)CCCOc1ccc(-c2cnc(-c3ccc(C[C@H](NC(=O)c4ccc(C(C)(C)C)cc4)C(=O)N[C@H](C)C(=O)O)cc3)nc2)cc1 [Compound 793]
5.60 to 6.10 | C[C@@H](NC(=O)[C@H](Cc1ccc(-c2ncc(-c3ccc(OCCC4CCCCC4)cc3)cn2)cc1)NC(=O)c1ccc(C(C)(C)C)cc1)C(=O)O [Compound 794]
> 6.10 | CC(C)CCCCOc1ccc(-c2cnc(-c3ccc(C[C@H](NC(=O)c4ccc(C(C)(C)C)s4)C(=O)N4CC(C(=O)O)C4)cc3)nc2)cc1 [Compound 795]
> 6.10 | CC(C)(C)CCOc1ccc(-c2cnc(-c3ccc(C[C@H](NC(=O)c4ccc(C(C)(C)C)s4)C(=O)N4CC(C(=O)O)C4)cc3)nc2)cc1 [Compound 796]
5.60 to 6.10 | CCC(C)COc1ccc(-c2cnc(-c3ccc(C[C@H](NC(=O)c4ccc(C(C)(C)C)s4)C(=O)N4CC(C(=O)O)C4)cc3)nc2)cc1 (stereo partly shown) [Compound 797]
5.60 to 6.10 | CC(C)CCCOc1ccc(-c2cnc(-c3ccc(C[C@H](NC(=O)c4ccc(C(C)(C)C)s4)C(=O)N4CC(C(=O)O)C4)cc3)nc2)cc1 [Compound 798, (S)-1-(2-(5-(tert-butyl)thiophene-2-carboxamido)-3-(4-(5-(4-((4-methylpentyl)oxy)phenyl)-pyrimidin-2-yl)phenyl)propanoyl)azetidine-3-carboxylic acid]
5.60 to 6.10 | CC(C)CCOc1ccc(-c2cnc(-c3ccc(C[C@H](NC(=O)c4ccc(C(C)(C)C)s4)C(=O)N4CC(C(=O)O)C4)cc3)nc2)cc1 [Compound 799]
5.00 to 5.30 | COc1ccc(-c2cnc(-c3ccc(C[C@H](NC(=O)c4ccc(C(C)(C)C)cc4)C(=O)N[C@H](C)C(=O)O)cc3)nc2)cc1 [Compound 800]
5.00 to 5.30 | CCCCCCCOc1ccc(-c2nc(-c3ccc(C[C@H](NC(=O)c4ccc(C(C)(C)C)cc4)C(=O)N[C@H](C)C(=O)O)cc3)no2)cc1 [Compound 801]
5.30 to 5.60 | CCCCCCCOc1ccc(-c2nnc(-c3ccc(C[C@H](NC(=O)c4ccc(C(C)(C)C)cc4)C(=O)N[C@H](C)C(=O)O)cc3)s2)cc1 [Compound 802]
5.60 to 6.10 | CC(C)(C)c1ccc(C(=O)N[C@@H](Cc2ccc(-c3ncc(-c4ccc(OCC5CCC(C(C)(C)C)CC5)cc4)cn3)cc2)C(=O)NCCC(=O)O)cc1 (stereo partly shown) [Compound 803]
5.60 to 6.10 | CCCCCCCOc1ccc(N2CCN(c3ccc(C[C@H](NC(=O)c4ccc(C(C)(C)C)cc4)C(=O)N[C@H](C)C(=O)O)cc3)CC2)cc1 [Compound 804]
5.60 to 6.10 | CCCCCCCOc1ccc2nc(-c3ccc(C[C@H](NC(=O)c4ccc(C(C)(C)C)cc4)C(=O)N[C@H](C)C(=O)O)cc3)ccc2c1 [Compound 806]
5.00 to 5.30 | CCCCCCCOc1ccc2nc(-c3ccc(C[C@H](NC(=O)c4ccc(C(C)(C)C)cc4)C(=O)N4CC[C@H](C(=O)O)C4)cc3)ccc2c1 [Compound 807]
5.30 to 5.60 | CCCCCCCOc1ccc2cc(-c3ccc(C[C@H](NC(=O)c4ccc(C(C)(C)C)cc4)C(=O)N[C@H](C)C(=O)O)cc3)ncc2c1 [Compound 808]
5.60 to 6.10 | CCCCCCCOc1ccc2nc(-c3ccc(C[C@H](NC(=O)c4ccc(C(C)(C)C)cc4)C(=O)N[C@H](C)C(=O)O)cc3)ncc2c1 [Compound 809]
5.00 to 5.30 | CCCCCCCOc1ccc2nc(-c3ccc(C[C@H](NC(=O)c4ccc(C(C)(C)C)cc4)C(=O)N4CC[C@H](C(=O)O)C4)cc3)ncc2c1 [Compound 810]
5.60 to 6.10 | CCCCCCCOc1ccc(-c2ccc(-c3ccc(C[C@H](NC(=O)c4ccc(C(C)(C)C)s4)C(=O)N[C@H](C)C(=O)O)cc3)nc2)cc1 [Compound 811]
5.60 to 6.10 | CCCCCCCOc1ccc(-c2cnc(-c3ccc(C[C@H](NC(=O)c4ccc(C(C)(C)C)s4)C(=O)N[C@H](C)C(=O)O)cc3)c(C)c2)cc1 [Compound 812]
5.60 to 6.10 | CCCCCCCOc1ccc(-c2cnc(-c3ccc(C[C@H](NC(=O)c4ccc(CC(C)C)s4)C(=O)N[C@H](C)C(=O)O)cc3)nc2)cc1 [Compound 813]
5.60 to 6.10 | CCCCCCCOc1ccc(-c2cnc(-c3ccc(C[C@H](NC(=O)c4cc5c(s4)CCC(C)C5)C(=O)N[C@H](C)C(=O)O)cc3)nc2)cc1 (stereo partly shown) [Compound 814]
> 6.10 | CCCCCCCOc1ccc(-c2cnc(-c3ccc(C[C@H](NC(=O)c4ccc(C(F)(F)F)s4)C(=O)N[C@H](C)C(=O)O)cc3)nc2)cc1 [Compound 815]

pEC50 | SMILES
5.60 to 6.10 | CCCCCCCOc1ccc(-c2cnc(-c3ccc(C[C@H](NC(=O)c4ccc(S(C)(=O)=O)cc4)C(=O)N[C@H](C)C(=O)O)cc3)nc2)cc1 [Compound 816]
5.60 to 6.10 | CCCCCCCOc1ccc(-c2cnc(-c3ccc(C[C@H](NC(=O)c4ccc(OC)cc4)C(=O)N[C@H](C)C(=O)O)cc3)nc2)cc1 [Compound 817]
5.60 to 6.10 | CCCCCCCOc1ccc(-c2cnc(-c3ccc(C[C@H](NC(=O)c4ccc(OCC)cc4)C(=O)N[C@H](C)C(=O)O)cc3)nc2)cc1 [Compound 818]
5.30 to 5.60 | CCCCCCCOc1ccc(-c2cnc(-c3ccc(C[C@H](NC(=O)c4ccc(CCCC)cc4)C(=O)N[C@H](C)C(=O)O)cc3)nc2)cc1 [Compound 819]
5.30 to 5.60 | CCCCCCCOc1ccc(-c2cnc(-c3ccc(C[C@H](NC(=O)c4ccc(CCCC)cc4)C(=O)N[C@H](C)C(=O)O)cc3)nc2)cc1 [Compound 820]
5.60 to 6.10 | CCCCCCCOc1ccc(-c2cnc(-c3ccc(C[C@H](NC(=O)c4ccc(CCCC)cc4)C(=O)N[C@H](C)C(=O)O)cc3)nc2)cc1 [Compound 821]
5.30 to 5.60 | CCCCCCCOc1ccc(-c2cnc(-c3ccc(C[C@H](NC(=O)c4ccc(C(F)(F)F)cc4)C(=O)N[C@H](C)C(=O)O)cc3)nc2)cc1 [Compound 822]
5.60 to 6.10 | CCCCCCCOc1ccc(-c2cnc(-c3ccc(C[C@H](NC(=O)c4ccc(CC(C)C)cc4)C(=O)N[C@H](C)C(=O)O)cc3)nc2)cc1 [Compound 823]
> 6.10 | CCCCCCCOc1ccc(-c2cnc(-c3ccc(C[C@H](NC(=O)c4ccc(Oc5ccccc5)cc4)C(=O)N[C@H](C)C(=O)O)cc3)nc2)cc1 [Compound 824]
> 6.10 | CCCCCCCOc1ccc(-c2cnc(-c3ccc(C[C@H](NC(=O)c4ccc(Cc5ccccc5)cc4)C(=O)N[C@H](C)C(=O)O)cc3)nc2)cc1 [Compound 825]
5.30 to 5.60 | CCCCCCCOc1ccc(-c2cnc(-c3ccc(C[C@H](NC(=O)CN(C)C)C(=O)N[C@H](C)C(=O)O)cc3)nc2)cc1 [Compound 826]
5.60 to 6.10 | CCCCCCCOc1ccc(-c2cnc(-c3ccc(C[C@H](NC(=O)c4ccc(C5CC5)cc4)C(=O)N[C@H](C)C(=O)O)cc3)nc2)cc1 [Compound 827]
> 6.10 | CCCCCCCOc1ccc(-c2cnc(-c3ccc(C[C@H](NC(=O)c4ccc(CC)cc4)C(=O)N[C@H](C)C(=O)O)cc3)nc2)cc1 [Compound 828]
5.00 to 5.30 | CCCCCCCOc1ccc(-c2cnc(-c3ccc(C[C@H](NC(=O)c4ccc(OCC(C)C)cc4)C(=O)N[C@H](C)C(=O)O)cc3)nc2)cc1 [Compound 829]
5.00 to 5.30 | CCCCCCCOc1ccc(-c2cnc(-c3ccc(C[C@H](NC(=O)c4ccc(CCC)cc4)C(=O)N[C@H](C)C(=O)O)cc3)nc2)cc1 [Compound 830]
5.30 to 5.60 | CCCCCCCOc1ccc(-c2cnc(-c3ccc(C[C@H](NC(=O)c4cnc(C(C)(C)C)nc4)C(=O)N[C@H](C)C(=O)O)cc3)nc2)cc1 [Compound 832]
5.00 to 5.30 | CCCCCCCOc1ccc(-c2cnc(-c3ccc(C[C@H](NC(=O)[C@H]4CC[C@H](C(C)(C)C)CC4)C(=O)N[C@H](C)C(=O)O)cc3)nc2)cc1 [Compound 833]
5.60 to 6.10 | CCCCCCCOc1ccc(-c2cnc(-c3ccc(C[C@H](NC(=O)c4ccc(C(C)(C)CC)cc4)C(=O)N[C@H](C)C(=O)O)cc3)nc2)cc1 [Compound 834]
5.30 to 5.60 | CCCCCCCOc1ccc(-c2cnc(-c3ccc(C[C@H](NC(=O)c4ccc(C(C)(C)C#N)cc4)C(=O)N[C@H](C)C(=O)O)cc3)nc2)cc1 [Compound 835]
5.30 to 5.60 | CCCCCCCOc1ccc(-c2cnc(-c3ccc(C[C@H](NC(=O)c4ccc(C(C)(C)C)cc4OCC)C(=O)N[C@H](C)C(=O)O)cc3)nc2)cc1 [Compound 836]
> 6.10 | CCCCCCCOc1ccc(-c2cnc(-c3ccc(C[C@H](NC(=O)c4ccc(C(C)(C)C)c(OC)c4)C(=O)N[C@H](C)C(=O)O)cc3)nc2)cc1 [Compound 837]
5.60 to 6.10 | CCCCCCCOc1ccc(-c2cnc(-c3ccc(C[C@H](NC(=O)c4ccn(C(C)(C)C)c4)C(=O)N[C@H](C)C(=O)O)cc3)nc2)cc1 [Compound 838]
5.60 to 6.10 | CCCCCCCOc1ccc(-c2cnc(-c3ccc(C[C@H](NC(=O)c4ccc(CC)s4)C(=O)N[C@H](C)C(=O)O)cc3)nc2)cc1 [Compound 839]
5.60 to 6.10 | CCCCCCCOc1ccc(-c2cnc(-c3ccc(C[C@H](NC(=O)c4ccc(CCC)s4)C(=O)N[C@H](C)C(=O)O)cc3)nc2)cc1 [Compound 840]
5.60 to 6.10 | CCCCCCCOc1ccc(-c2cnc(-c3ccc(C[C@H](NC(=O)c4ccc(C(C)C)s4)C(=O)N[C@H](C)C(=O)O)cc3)nc2)cc1 [Compound 841]
5.60 to 6.10 | CCCCCCCOc1ccc(-c2cnc(-c3ccc(C[C@H](NC(=O)c4ccc(C5CC5)s4)C(=O)N[C@H](C)C(=O)O)cc3)nc2)cc1 [Compound 842]
